A short description of data set [1]: Inhibition of porcine brain CK1 delta/epsilon using RRKHAAIGpSAYSITA as substrate incubated for 30 mins in presence of [gamma-33 P] ATP by liquid scintillation counting analysis. Set-up: species or system Sus scrofa.
Data set [2] has as its target Cyclin-dependent kinase 5/CDK5 activator 1 (Homo sapiens, UniProt Q00535). It is filed as protein-complex assay.
Data set [3] deals with Glycogen synthase kinase-3 (Sus scrofa, UniProt B2LUN4+I6LNT8). Put plainly: Inhibition of porcine brain GSK3alpha/beta using GS-1 as substrate incubated for 30 mins in presence of [gamma-33 P] ATP by liquid scintillation counting analysis.
Data set [4] addresses Dual specificity tyrosine-phosphorylation-regulated kinase 1A (Homo sapiens, UniProt Q13627). Description: Inhibition of GST-tagged human recombinant DYRK1A expressed in Escherichia coli using RS peptide as substrate incubated for 30 mins in presence of [gamma-33 P] ATP by liquid scintillation counting analysis.
Data set [5] has as its target Dual specificity protein kinase CLK1 (Homo sapiens, UniProt P49759). Description: Inhibition of GST-tagged human recombinant CLK1 expressed in Escherichia coli using RS peptide as substrate incubated for 30 mins in presence of [gamma-33 P] ATP by liquid scintillation counting analysis.
The target in data set [6] is Dual specificity tyrosine-phosphorylation-regulated kinase 1B (Homo sapiens, UniProt Q9Y463). Put plainly: Inhibition of GST-tagged human recombinant DYRK1B expressed in Escherichia coli using RS peptide as substrate incubated for 30 mins in presence of [gamma-33 P] ATP by liquid scintillation counting analysis.
Dual specificity tyrosine-phosphorylation-regulated kinase 1B, sequence (Q9Y463 whole entry): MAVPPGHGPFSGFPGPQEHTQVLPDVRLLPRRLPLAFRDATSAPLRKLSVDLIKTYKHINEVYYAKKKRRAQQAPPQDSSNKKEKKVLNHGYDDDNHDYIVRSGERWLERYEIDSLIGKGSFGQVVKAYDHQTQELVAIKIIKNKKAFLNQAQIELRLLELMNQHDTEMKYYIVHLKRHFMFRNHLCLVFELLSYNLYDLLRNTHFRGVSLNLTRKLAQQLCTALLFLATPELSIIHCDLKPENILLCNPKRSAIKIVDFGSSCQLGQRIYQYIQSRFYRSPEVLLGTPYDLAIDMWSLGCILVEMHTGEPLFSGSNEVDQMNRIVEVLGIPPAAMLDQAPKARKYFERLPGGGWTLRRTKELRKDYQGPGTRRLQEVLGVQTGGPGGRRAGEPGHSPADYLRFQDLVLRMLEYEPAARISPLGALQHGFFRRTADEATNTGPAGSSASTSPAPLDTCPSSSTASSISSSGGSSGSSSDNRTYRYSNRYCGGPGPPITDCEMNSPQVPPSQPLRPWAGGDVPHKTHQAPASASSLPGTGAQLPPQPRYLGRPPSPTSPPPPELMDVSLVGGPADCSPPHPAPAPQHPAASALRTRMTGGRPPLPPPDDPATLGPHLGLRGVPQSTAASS
The target in data set [7] is Dual specificity protein kinase CLK2 (Homo sapiens, UniProt P49760). Description: Inhibition of GST-tagged human recombinant CLK2 expressed in Escherichia coli using RS peptide as substrate incubated for 30 mins in presence of [gamma-33 P] ATP by liquid scintillation counting analysis.
Dual specificity protein kinase CLK2, sequence (P49760 whole entry): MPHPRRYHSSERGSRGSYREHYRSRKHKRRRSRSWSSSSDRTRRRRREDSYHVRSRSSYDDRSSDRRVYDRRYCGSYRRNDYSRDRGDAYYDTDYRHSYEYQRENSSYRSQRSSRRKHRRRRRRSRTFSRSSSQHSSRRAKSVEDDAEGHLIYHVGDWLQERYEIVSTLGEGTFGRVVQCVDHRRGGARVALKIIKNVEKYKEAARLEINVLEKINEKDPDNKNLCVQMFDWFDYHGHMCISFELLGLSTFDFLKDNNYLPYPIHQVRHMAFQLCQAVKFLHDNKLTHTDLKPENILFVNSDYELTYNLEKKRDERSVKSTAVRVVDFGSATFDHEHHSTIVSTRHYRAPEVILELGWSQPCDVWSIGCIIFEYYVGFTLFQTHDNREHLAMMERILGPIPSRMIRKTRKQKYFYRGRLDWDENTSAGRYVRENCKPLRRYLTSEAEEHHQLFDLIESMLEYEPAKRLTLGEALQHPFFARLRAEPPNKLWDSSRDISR
The target in data set [8] is Dual specificity protein kinase CLK3 (Homo sapiens, UniProt P49761). Description: Inhibition of GST-tagged human recombinant CLK3 expressed in Escherichia coli using RS peptide as substrate incubated for 30 mins in presence of [gamma-33 P] ATP by liquid scintillation counting analysis.
Dual specificity protein kinase CLK3, sequence (P49761 whole entry): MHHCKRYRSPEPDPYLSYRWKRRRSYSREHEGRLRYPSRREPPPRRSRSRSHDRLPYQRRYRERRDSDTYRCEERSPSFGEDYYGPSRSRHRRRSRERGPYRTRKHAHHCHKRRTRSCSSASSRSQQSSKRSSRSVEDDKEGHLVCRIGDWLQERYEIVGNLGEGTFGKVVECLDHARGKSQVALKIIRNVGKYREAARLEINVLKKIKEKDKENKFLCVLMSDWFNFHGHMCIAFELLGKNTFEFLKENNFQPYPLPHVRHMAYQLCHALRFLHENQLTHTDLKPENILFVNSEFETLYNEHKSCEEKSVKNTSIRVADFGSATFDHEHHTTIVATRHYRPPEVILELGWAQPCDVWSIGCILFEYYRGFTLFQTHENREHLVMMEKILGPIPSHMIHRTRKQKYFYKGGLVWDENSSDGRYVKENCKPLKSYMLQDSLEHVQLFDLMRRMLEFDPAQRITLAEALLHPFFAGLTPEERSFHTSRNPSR
Data set [9] has as its target Dual specificity protein kinase CLK4 (Homo sapiens, UniProt Q9HAZ1). Description: Inhibition of GST-tagged human recombinant CLK4 expressed in Escherichia coli using RS peptide as substrate incubated for 30 mins in presence of [gamma-33 P] ATP by liquid scintillation counting analysis.
Data set [10] is described as follows: Cytotoxicity against human KB cells assessed as growth inhibition at 1 uM after 72 hrs by MTS assay. It is filed as toxicity, cell-based. To be noted: for inhibition at 72 h, 1 µM: KB cells, read-out: GI; for growth inhibition (GI): kb, 72 h, 1 µM.

The source of these data is ChEMBL document CHEMBL3875174, “Further investigation of Paprotrain: Towards the conception of selective and multi-targeted CNS kinase inhibitors” (Eur J Med Chem, 2016).

Cyclin-dependent kinase 5/CDK5 activator 1, sequence (Q00535 whole entry): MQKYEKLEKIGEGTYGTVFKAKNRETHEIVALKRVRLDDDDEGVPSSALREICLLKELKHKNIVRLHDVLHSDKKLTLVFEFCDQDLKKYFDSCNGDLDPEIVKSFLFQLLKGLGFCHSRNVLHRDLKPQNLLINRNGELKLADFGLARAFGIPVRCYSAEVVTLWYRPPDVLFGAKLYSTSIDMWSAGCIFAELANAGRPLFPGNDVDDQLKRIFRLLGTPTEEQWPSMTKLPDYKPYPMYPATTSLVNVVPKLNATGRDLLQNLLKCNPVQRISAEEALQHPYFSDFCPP
Cyclin-dependent kinase 5/CDK5 activator 1, sequence (Q15078 whole entry, further chain): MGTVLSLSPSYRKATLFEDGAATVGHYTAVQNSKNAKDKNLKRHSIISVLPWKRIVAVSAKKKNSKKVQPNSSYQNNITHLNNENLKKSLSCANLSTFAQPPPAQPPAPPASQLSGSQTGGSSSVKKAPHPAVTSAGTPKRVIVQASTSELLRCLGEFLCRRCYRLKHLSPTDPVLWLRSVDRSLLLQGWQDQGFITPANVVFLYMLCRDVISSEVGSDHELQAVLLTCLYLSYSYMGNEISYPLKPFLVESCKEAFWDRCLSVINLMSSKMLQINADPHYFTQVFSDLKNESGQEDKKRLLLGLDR
Dual specificity protein kinase CLK4, sequence (Q9HAZ1 whole entry): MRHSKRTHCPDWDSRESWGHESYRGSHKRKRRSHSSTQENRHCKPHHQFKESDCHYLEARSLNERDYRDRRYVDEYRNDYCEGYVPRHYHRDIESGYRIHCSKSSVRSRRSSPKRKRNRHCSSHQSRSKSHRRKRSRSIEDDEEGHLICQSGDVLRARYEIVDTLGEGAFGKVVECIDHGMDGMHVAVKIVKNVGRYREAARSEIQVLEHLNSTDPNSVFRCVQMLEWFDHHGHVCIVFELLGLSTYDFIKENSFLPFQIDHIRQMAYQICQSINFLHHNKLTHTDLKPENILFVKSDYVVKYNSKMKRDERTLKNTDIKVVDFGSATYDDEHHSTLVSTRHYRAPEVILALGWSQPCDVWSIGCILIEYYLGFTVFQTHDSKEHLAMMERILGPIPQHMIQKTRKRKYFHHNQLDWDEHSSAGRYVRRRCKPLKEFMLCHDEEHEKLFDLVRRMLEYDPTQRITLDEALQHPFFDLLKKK
Dual specificity protein kinase CLK1, sequence (P49759 whole entry): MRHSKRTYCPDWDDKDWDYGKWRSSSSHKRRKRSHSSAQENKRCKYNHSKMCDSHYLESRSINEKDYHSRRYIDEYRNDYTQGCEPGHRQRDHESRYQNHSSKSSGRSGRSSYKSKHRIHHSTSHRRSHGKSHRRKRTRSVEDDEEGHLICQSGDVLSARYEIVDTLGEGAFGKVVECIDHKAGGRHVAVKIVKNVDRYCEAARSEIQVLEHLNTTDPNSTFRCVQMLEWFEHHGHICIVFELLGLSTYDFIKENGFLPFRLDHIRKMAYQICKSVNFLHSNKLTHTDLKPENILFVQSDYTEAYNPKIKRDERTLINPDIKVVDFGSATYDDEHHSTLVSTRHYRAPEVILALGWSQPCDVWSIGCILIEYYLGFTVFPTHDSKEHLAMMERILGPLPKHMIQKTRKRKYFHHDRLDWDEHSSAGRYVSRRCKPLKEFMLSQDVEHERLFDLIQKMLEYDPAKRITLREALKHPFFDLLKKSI

Regarding `COc1ccc2c(c1)[nH]c1c3ccncc3cc(C#N)c21`, the IC50 was above 10 µM in data set [1]; 0.44 µM in [2]; 0.68 µM in data set [3]; 0.025 µM in data set [4]; 0.023 µM in data set [5]; 0.034 µM in data set [6]. Moreover, the IC50 was found to be 0.08 µM in [7], 0.19 µM in data set [8] and 0.033 µM in [9]. In addition, in data set [10], the inhibition at 72 h, 1 µM is 64%.
For `COc1ccc2c(c1)[nH]c1c3ccncc3cc(CN)c21`, the IC50 is above 10 µM in [1]; 5.6 µM in data set [2]; above 10 µM in data set [3]; 0.87 µM in data set [4]; 0.83 µM in data set [5]; 0.91 µM in data set [6]. The figures for the IC50 in data set [7], in data set [8] and in [9] were 1.6 µM, 7 µM and 0.27 µM, respectively. The inhibition at 72 h, 1 µM in [10] turned out to be 85%.
Regarding `COc1ccc2c(c1)[nH]c1c3ccncc3cc(CNC(C)=O)c21`, the IC50 is above 10 µM in data set [1]; 6 µM in data set [2]; above 10 µM in data set [3]; 0.97 µM in data set [4]; 2.4 µM in [5]; 0.9 µM in [6]. Besides, the IC50 in data set [7] stood at 2.8 µM; in data set [8], 8 µM; in data set [9], 0.69 µM. The inhibition at 72 h, 1 µM in [10] came out at 16%.
For the compound `N#C/C(=C\c1cccnc1)c1c[nH]c2ncccc12`, the IC50 in [1] is above 10 µM; in [2], 0.13 µM; in [3], 0.72 µM; in [4], 0.021 µM; in data set [5], 0.016 µM; in [6], 0.24 µM. For the same compound, the IC50 in data set [7] was 4.6 µM; in [8] it was above 10 µM; in data set [9] it was 0.047 µM. The inhibition at 72 h, 1 µM in data set [10] is 29%.
In the case of `COc1cccc2[nH]c3c4ccncc4cc(C#N)c3c12`, the IC50 in [1] was above 10 µM; in data set [2], above 10 µM; in data set [3], above 10 µM; in data set [4], 0.85 µM; in data set [5] it was 0.62 µM; in data set [6] it was above 10 µM. For the same compound, the IC50 is 4 µM in data set [7], above 10 µM in data set [8] and 0.1 µM in data set [9]. The inhibition at 72 h, 1 µM in data set [10] is 13%.
With `COc1ccc2[nH]cc(-c3cc4cnccc4cc3NC(C)=O)c2c1`, the IC50 in data set [1] was above 10 µM; in data set [2], 8 µM; in data set [3] it was above 10 µM; in data set [4], 0.85 µM; in data set [5], 0.034 µM; in data set [6] it was 0.59 µM. The results for the IC50 in [7], in [8] and in data set [9] were 1.1 µM, 7 µM and 0.022 µM, respectively. Moreover, the “growth inhibition (GI)” value in [10] is listed as “Non-Toxic”.
As for `COc1ccc2c(/C(C#N)=C/c3cccnc3)c[nH]c2n1`, the IC50 in data set [1] was above 10 µM; in data set [2], above 10 µM; in data set [3] it was above 10 µM; in data set [4], 0.18 µM; in [5] it was 0.23 µM; in data set [6], 0.1 µM. The IC50 in data set [7] is 2.3 µM; in data set [8], above 10 µM; in data set [9], 0.071 µM. In addition, the “growth inhibition (GI)” value in data set [10] is on record as “Non-Toxic”.
Consider `N#Cc1cc2cnccc2c2[nH]c3ccc(F)cc3c12`, for which the IC50 was above 10 µM in data set [1]; above 10 µM in data set [2]; above 10 µM in data set [3]; 0.31 µM in [4]; 0.23 µM in data set [5]; 0.3 µM in [6]. Further, the figures for the IC50 in [7], in [8] and in [9] were 0.61 µM, above 10 µM and 0.2 µM, respectively. In addition, in [10], the “growth inhibition (GI)” value was “Non-Toxic”.
Turning to `COc1ccc2[nH]c3c4ccncc4cc(C#N)c3c2c1`, the IC50 is above 10 µM in data set [1]; 0.8 µM in data set [2]; 1.7 µM in [3]; 0.37 µM in [4]; 0.051 µM in data set [5]; 0.22 µM in data set [6]. Also, the IC50 in data set [7] turned out to be 0.11 µM; in [8], 0.71 µM; in data set [9], 0.057 µM. Also, the “growth inhibition (GI)” value in data set [10] is “Non-Toxic”.
Take `N#Cc1cc2cnccc2c2[nH]c3ncccc3c12`: the IC50 in [1] was above 10 µM; in data set [2] it was 0.78 µM; in data set [3], 1.8 µM; in data set [4] it was 0.44 µM; in data set [5] it was 0.16 µM; in [6], 0.16 µM. Further, the IC50 in [7] turned out to be 0.4 µM; in [8], 6.8 µM; in data set [9], 0.13 µM. The “growth inhibition (GI)” value in data set [10] is reported as “Non-Toxic”.
Regarding `COc1ccc2c(c1)[nH]c1c3c(OC)cncc3cc(C#N)c21`, the IC50 in data set [1] is above 10 µM; in data set [2], 6.4 µM; in data set [3], 0.14 µM; in data set [4], 0.018 µM; in [5], 0.023 µM; in data set [6], 0.042 µM. Moreover, the IC50 in data set [7] turned out to be 0.15 µM; in data set [8], 0.32 µM; in data set [9] it was 0.03 µM. In addition, the inhibition at 72 h, 1 µM in data set [10] stood at 38%.
On to `COc1ccc2c(n1)[nH]c1c3ccncc3cc(C#N)c21`, for which the IC50 in [1] was above 10 µM; in data set [2], above 10 µM; in [3], above 10 µM; in data set [4] it was 0.2 µM; in [5], 0.086 µM; in data set [6] it was 0.093 µM. For the same compound, the IC50 in data set [7] is 4.6 µM; in data set [8], above 10 µM; in data set [9], 0.047 µM. Further, the “growth inhibition (GI)” value in data set [10] is listed as “Non-Toxic”.
With `COc1ccc2[nH]c3c(=O)[nH]c(-c4cccnc4)c(C#N)c3c2c1`, the IC50 was above 10 µM in [1]; above 10 µM in [2]; above 10 µM in data set [3]; 4.3 µM in data set [4]; 0.047 µM in data set [5]; 1.1 µM in data set [6]. The IC50 in data set [7] was 0.61 µM; in [8] it was above 10 µM; in [9], 0.021 µM. Also, the “growth inhibition (GI)” value in data set [10] is “Non-Toxic”.
